The nature of the series: Nitric oxide gas bubbled through carrier, change in weight noted. The series is classed as physicochemical. To be noted: 25 °C. The protocol: This example illustrates one technique for preparing a composition in accordance with one embodiment of the invention. An accurate amount of a carrier (HNC 167-62) (see below) was introduced into a system. The carrier weight used in these experiments was approximately 250 g and the vessel size was 500 ml. The vessel was equipped with a mechanical stirrer, gas inlet, and gas outlet and was previously purged with argon for about an hour. The temperature of the carrier was kept at about 25-30° C. NO gas regulated at 5 psi (1 psi is about 6,900 Pa) and was then introduced at a controlled rate of about 1 bubble/s with continuous stirring. […] After 6 hours, the weight of the carrier had increased by 0.15%, by 12 hours by 0.25%, and by 24 hours by 0.56%. These increases in weight were believed to be significant considering the relative small molecular weight of NO versus the carrier. […] The carrier also can solidify upon cooling if the carrier is initially a solid at lower temperature.
Each carrier was taken in a 500 mL three necked flask equipped with a mechanical stirrer, gas inlet and a gas outlet. The system was purged with argon for one hour at room temperature (25° C.). Then nitric oxide gas was bubbled into the system. Then, nitric oxide gas was bubbled through carrier for stipulated amount of time. The changes in weight and color were noted. The details of individual experiments were as follows.

The structures appear in SMILES notation. “Also recorded” adds a separate entry of the source.

This is an account of results in US8668937B2, “Topical nitric oxide systems and methods of use thereof” (Transdermal Biotechnology, Inc., priority 2011, dated 2014).

As to `OCCCO` [1,3-Propanediol, 1,3-propanediol], for the setting “NO gas bubbled 40 hr”, the “% Wt. gain” value came to 0.09% and the “Wt. Gain g” value turned out to be 0.16 g. Moreover, the “weight gain when NO was passed through (in words)” value (neat, NO gas bubbled 40 hours) is recorded as “only negligible, if any, weight gain; also recorded: failed to gain any significant weight”.
